Values quoted from earlier work in patent publication US9910020B1, “Methods and articles for identifying objects using encapsulated perfluorocarbon tracers” (Copilot Ventures Fund III LLC, priority 2005, dated 2018).

Experiments:
[1] = test system: cytochrome P-450 IIA1 (a.k.a. cytochrome P450b); conditions: following PFD treatment, rats; as with phenobarbital induction
[2] = test system: cytochrome P-450 IIA2 (a.k.a. cytochrome P450e); conditions: following PFD treatment, rats; as with phenobarbital induction
[3] = test system: cytochrome P-450 IA1 and IA1; conditions: following PFD treatment, rats; induced by 3-methylcholanthrene-type inducers
aldrin-epoxidase = conditions: following PFD treatment, rats
cytochrome P-450 = conditions: PFD given to rats; hepatic metabolizing enzymes
cytochrome P450 IV = conditions: following PFD treatment, rats; induced by fatty acids and perfluoronated fatty acids
[4] = test system: benzphetamine-N-demethylase; conditions: following PFD treatment, rats

FC1(F)C(F)(F)C(F)(F)C2(F)C(F)(F)C(F)(F)C(F)(F)C(F)(F)C2(F)C1(F)F (stereo not shown) [PFD, perfluorodecalin]
activity of cytochrome P-450 IIA1, increase [1]: approximately two-fold | activity of cytochrome P-450 IIA2, increase [2]: approximately two-fold | activities of cytochrome P-450 IA1 and IA1 [3]: unaffected | activity of aldrin-epoxidase (aldrin-epoxidase): increased | induction of cytochrome P-450 (cytochrome P-450): induce cytochrome P-450 in a manner similar to phenobarbital | activity of cytochrome P450 IV (cytochrome P450 IV): unaffected | activity of benzphetamine-N-demethylase [4]: increased
